Results published in ChEMBL document CHEMBL1201862, “PubChem BioAssay data set” (2004).
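Each compound was tested at five concentrations against cells in 96-well plates for 48 hours. GI50: concentration for 50% inhibition of growth.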 Calls of active or inactive are those of the source. No stated cut-off is given here; in the data, active = GI50 up to about 1.1 µM and inactive = higher.

Experiments:
Experiment in all cases: inhibition of tumour cell growth, NCI panel, 48 h
786-0 = system: 786-0
A498 = system: A498
A549 = system: A549
ACHN = system: ACHN
CCRF-CEM = system: CCRF-CEM
COLO 205 = system: COLO 205
DLD-1 = system: DLD-1
DMS-273 = system: DMS-273
EKVX = system: EKVX
HCC 2998 = system: HCC 2998
HCT-116 = system: HCT-116
HCT-15 = system: HCT-15
HL-60 = system: HL-60
HOP-62 = system: HOP-62
HOP-92 = system: HOP-92
HT-29 = system: HT-29
IGROV-1 = system: IGROV-1
K562 = system: K562
KM-20L2 = system: KM-20L2
KM12 = system: KM12
LOX IMVI = system: LOX IMVI
LXFL 529 = system: LXFL 529
M14 = system: M14
M19-MEL = system: M19-MEL
MOLT-4 = system: MOLT-4
Malme-3M = system: Malme-3M
NCI-H226 = system: NCI-H226
NCI-H23 = system: NCI-H23
NCI-H460 = system: NCI-H460
NCI-H522 = system: NCI-H522
OVCAR-3 = system: OVCAR-3
OVCAR-4 = system: OVCAR-4
OVCAR-5 = system: OVCAR-5
RPMI-8226 = system: RPMI-8226
RXF 393 = system: RXF 393
SF-268 = system: SF-268
SF-295 = system: SF-295
SF-539 = system: SF-539
SK-MEL-28 = system: SK-MEL-28
SK-MEL-2 = system: SK-MEL-2
SK-OV-3 = system: SK-OV-3
SN12C = system: SN12C
SNB-19 = system: SNB-19
SNB-78 = system: SNB-78
SR = system: SR
SW-620 = system: SW-620
TK-10 = system: TK-10
U-251 = system: U-251
UACC-257 = system: UACC-257
UACC-62 = system: UACC-62
UO-31 = system: UO-31
XF498 = system: XF498
CAKI-1 = system: CAKI-1
DMS-114 = system: DMS-114
OVCAR-8 = system: OVCAR-8
SK-MEL-5 = system: SK-MEL-5

CN1C/C(=C\c2ccccc2)C2=NN(C(N)=S)[C@H](c3ccccc3)[C@@H]2C1
GI50 (786-0): 64 µM (inactive) | GI50 (A498): > 100 µM (inactive) | GI50 (A549): 52 µM (inactive) | GI50 (ACHN): 76.7 µM (inactive) | GI50 (CCRF-CEM): 45.6 µM (inactive) | GI50 (COLO 205): 38.5 µM (inactive) | GI50 (DLD-1): 53.7 µM (inactive) | GI50 (DMS-273): 47.4 µM (inactive) | GI50 (EKVX): > 100 µM (inactive) | GI50 (HCC 2998): > 100 µM (inactive) | GI50 (HCT-116): 37.3 µM (inactive) | GI50 (HCT-15): > 100 µM | GI50 (HL-60): 21.7 µM (inactive) | GI50 (HOP-62): > 100 µM (inactive) | GI50 (HOP-92): 75.3 µM (inactive) | GI50 (HT-29): 32.9 µM (inactive) | GI50 (IGROV-1): > 100 µM (inactive) | GI50 (K562): 36 µM (inactive) | GI50 (KM-20L2): 55.6 µM (inactive) | GI50 (KM12): 54 µM (inactive) | GI50 (LOX IMVI): > 100 µM (inactive) | GI50 (LXFL 529): 29.4 µM (inactive) | GI50 (M14): 95.1 µM (inactive) | GI50 (M19-MEL): 55.2 µM (inactive) | GI50 (MOLT-4): 89.1 µM (inactive) | GI50 (Malme-3M): 36.6 µM (inactive) | GI50 (NCI-H226): 75.5 µM (inactive) | GI50 (NCI-H23): 56.4 µM (inactive) | GI50 (NCI-H460): 50.5 µM (inactive) | GI50 (NCI-H522): 40 µM (inactive) | GI50 (OVCAR-3): > 100 µM (inactive) | GI50 (OVCAR-4): 56.6 µM (inactive) | GI50 (OVCAR-5): > 100 µM (inactive) | GI50 (RPMI-8226): 0.276 µM (active) | GI50 (RXF 393): 34.4 µM (inactive) | GI50 (SF-268): > 100 µM (inactive) | GI50 (SF-295): 87.9 µM (inactive) | GI50 (SF-539): > 100 µM (inactive) | GI50 (SK-MEL-28): > 100 µM (inactive) | GI50 (SK-MEL-2): > 100 µM (inactive) | GI50 (SK-OV-3): > 100 µM (inactive) | GI50 (SN12C): > 100 µM (inactive) | GI50 (SNB-19): > 100 µM (inactive) | GI50 (SNB-78): 28.1 µM (inactive) | GI50 (SR): > 100 µM (inactive) | GI50 (SW-620): > 100 µM (inactive) | GI50 (TK-10): > 100 µM (inactive) | GI50 (U-251): > 100 µM (inactive) | GI50 (UACC-257): 59.2 µM (inactive) | GI50 (UACC-62): 74.6 µM (inactive) | GI50 (UO-31): 36.9 µM (inactive) | GI50 (XF498): > 100 µM (inactive)

O=C(N/C(=C\c1ccc([N+](=O)[O-])cc1)c1nc2cc(Cl)ccc2[nH]1)c1ccccc1
GI50 (786-0): 17.7 µM (inactive) | GI50 (A549): 20.8 µM (inactive) | GI50 (ACHN): 22 µM (inactive) | GI50 (CAKI-1): 24.4 µM (inactive) | GI50 (CCRF-CEM): 18.6 µM (inactive) | GI50 (DLD-1): 13.5 µM (inactive) | GI50 (DMS-114): 16.3 µM (inactive) | GI50 (EKVX): 29.4 µM (inactive) | GI50 (HCC 2998): 18 µM (inactive) | GI50 (HCT-15): 13.3 µM | GI50 (HL-60): 17.2 µM (inactive) | GI50 (HOP-92): 14 µM (inactive) | GI50 (HT-29): 20.3 µM (inactive) | GI50 (IGROV-1): 16.9 µM (inactive) | GI50 (K562): 12.8 µM (inactive) | GI50 (KM-20L2): 16.3 µM (inactive) | GI50 (KM12): 21.1 µM (inactive) | GI50 (LXFL 529): 17.1 µM (inactive) | GI50 (M14): 17.3 µM (inactive) | GI50 (M19-MEL): 31.6 µM (inactive) | GI50 (MOLT-4): 10.1 µM (inactive) | GI50 (Malme-3M): 35.1 µM (inactive) | GI50 (NCI-H23): 18.1 µM (inactive) | GI50 (NCI-H522): 11.9 µM (inactive) | GI50 (OVCAR-3): 21.8 µM (inactive) | GI50 (OVCAR-4): 15.7 µM (inactive) | GI50 (OVCAR-5): 11.3 µM (inactive) | GI50 (OVCAR-8): 30.1 µM (inactive) | GI50 (RXF 393): 21 µM (inactive) | GI50 (SF-268): 18.4 µM (inactive) | GI50 (SF-295): 23.8 µM (inactive) | GI50 (SF-539): 19.1 µM (inactive) | GI50 (SK-MEL-28): 22.9 µM (inactive) | GI50 (SK-MEL-2): 21.9 µM (inactive) | GI50 (SK-MEL-5): 17.6 µM (inactive) | GI50 (SK-OV-3): 39.4 µM (inactive) | GI50 (SN12C): 20.7 µM (inactive) | GI50 (SNB-19): 24.9 µM (inactive) | GI50 (SNB-78): 23.8 µM (inactive) | GI50 (SR): 18 µM (inactive) | GI50 (SW-620): 19.5 µM (inactive) | GI50 (TK-10): 32.4 µM (inactive) | GI50 (U-251): 15.5 µM (inactive) | GI50 (UACC-62): 18.7 µM (inactive) | GI50 (UO-31): 13.9 µM (inactive) | GI50 (XF498): 15.3 µM (inactive)
